# Target: T1, human H1 receptor (Homo sapiens, UniProt P35367)
# T1 construct: purchased Euroscreen SA, Brussels, Belgium ES-390-M; host or cells: CHO-K1
# Assay: Histamine H1 receptor binding, competition displacement of [3H]-pyrilamine
# Conditions: displacement of 1 nM [3H]-pyrilamine; 2 μg membranes from recombinant CHO-K1 cells expressing the human H1 receptor; 1 hour at room temperature; read-out: H1 pKi (converted)
# T1 sequence (P35367 whole entry): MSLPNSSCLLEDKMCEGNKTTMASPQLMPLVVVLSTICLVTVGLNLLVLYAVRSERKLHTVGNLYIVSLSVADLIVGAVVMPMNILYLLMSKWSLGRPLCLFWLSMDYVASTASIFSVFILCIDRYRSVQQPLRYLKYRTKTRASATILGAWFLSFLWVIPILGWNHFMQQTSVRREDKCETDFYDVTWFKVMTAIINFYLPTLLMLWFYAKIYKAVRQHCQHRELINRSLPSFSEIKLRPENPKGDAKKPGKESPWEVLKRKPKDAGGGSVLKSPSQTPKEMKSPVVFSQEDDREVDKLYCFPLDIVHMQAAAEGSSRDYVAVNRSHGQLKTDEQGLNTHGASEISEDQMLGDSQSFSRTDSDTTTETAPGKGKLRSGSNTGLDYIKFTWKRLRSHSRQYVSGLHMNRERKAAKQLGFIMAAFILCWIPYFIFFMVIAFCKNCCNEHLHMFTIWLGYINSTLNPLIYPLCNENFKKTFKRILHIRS
row,Ki,SMILES
1,5.01 nM,"Cc1ccc(C(=O)O)c(N2CCC(CN3CCC(Oc4ccc(Cl)c(Cl)c4)CC3)CC2)n1 [Example 47, 2-(4-{[4-(3,4-dichlorophenoxy)piperidin-1-yl]methyl}piperidin-1-yl)-6-methylnicotinic acid]"
2,79.4 nM,"N#Cc1ccc(OC2CCN(CC3CCN(c4c(Cl)cccc4C(=O)O)CC3)CC2)cc1Cl [Example 48, 3-chloro-2-(4-{[4-(3-chloro-4-cyanophenoxy)piperidin-1-yl]methyl}piperidin-1-yl)benzoic acid]"
3,50.1 nM,"Cc1cc(Cl)ccc1OC1CCN(CC2CCN(c3ccccc3C(=O)O)CC2)CC1 [Example 49, 2-(4-{[4-(4-chloro-2-methylphenoxy)piperidin-1-yl]methyl}piperidin-1-yl)benzoic acid]"
4,15.8 nM,"Cc1cc(OC2CCN(CC3CCN(c4c(F)cccc4C(=O)O)CC3)CC2)ccc1Cl [Example 68, 2-(4-{[4-(4-chloro-3-methylphenoxy)piperidin-1-yl]methyl}piperidin-1-yl)-3-fluorobenzoic acid]"
5,2.51 nM,"Cc1cc(OC2CCN(CC3CCN(c4cc(Cl)ccc4C(=O)O)CC3)CC2)ccc1Cl [Example 74, 4-chloro-2-(4-{[4-(4-chloro-3-methylphenoxy)piperidin-1-yl]methyl}piperidin-1-yl)benzoic acid]"
6,20 nM,"Cc1c(OC2CCN(CC3CCN(c4cccc(C(=O)O)c4)CC3)CC2)ccc(Cl)c1Cl [Example 96, 3-(4-{[4-(3,4-dichloro-2-methylphenoxy)piperidin-1-yl]methyl}piperidin-1-yl)benzoic acid]"
7,7.94 nM,"Cc1cc(C(=O)O)cc(N2CCC(CN3CCC(Oc4ccc(Cl)c(Cl)c4)CC3)CC2)c1 [Example 99, 3-(4-{[4-(3,4-dichlorophenoxy)piperidin-1-yl]methyl}piperidin-1-yl)-5-methylbenzoic acid]"
8,20 nM,"O=C(O)c1cccc(N2CCC(CN3CCC(Cc4ccc(Cl)c(Cl)c4)CC3)CC2)c1 [Example 106, 3-(4-{[4-(3,4-dichlorobenzyl)piperidin-1-yl]methyl}piperidin-1-yl)benzoic acid]"

# The next lines start with the compound.
row,SMILES,Ki
1,"COC(=O)c1ccccc1N1CCC(CN2CCC(Oc3ccc(Cl)c(Cl)c3)CC2)CC1 [Example 1, methyl 2-[4-[[4-(3,4-dichlorophenoxy)-1-piperidinyl]methyl]-1-piperidinyl)-benzoate]",2.51 nM
2,"CCOC(=O)c1cccc(N2CCC(CN3CCC(Cc4ccc(Cl)c(Cl)c4)CC3)CC2)c1 [Example 32, Ethyl 3-(4-{[4-(3,4-dichlorobenzyl)piperidin-1-yl]methyl}piperidin-1-yl)benzoate]",10 nM
3,"N#Cc1ccc(OC2CCN(CC3CCN(c4ccccc4C(=O)O)CC3)CC2)cc1Cl [Example 34, 2-(4-{[4-(3-chloro-4-cyanophenoxy)piperidin-1-yl]methyl}piperidin-1-yl)benzoic acid]",631 nM
4,"N#Cc1ccc(OC2CCN(CC3CCN(c4cc(Cl)ccc4C(=O)O)CC3)CC2)cc1Cl [Example 36, 4-chloro-2-(4-{[4-(3-chloro-4-cyanophenoxy)piperidin-1-yl]methyl}piperidin-1-yl)benzoic acid]",10 nM
5,"COc1cccc(C(=O)O)c1N1CCC(CN2CCC(Oc3ccc(C#N)c(Cl)c3)CC2)CC1 [Example 55, 2-(4-{[4-(3-chloro-4-cyanophenoxy)piperidin-1-yl]methyl}piperidin-1-yl)-3-methoxybenzoic acid]",316 nM
6,"Cc1cc(Cl)ccc1OC1CCN(CC2CCN(c3ccc([N+](=O)[O-])cc3C(=O)O)CC2)CC1 [Example 59, 2-(4-{[4-(4-chloro-2-methylphenoxy)piperidin-1-yl]methyl}piperidin-1-yl)-5-nitrobenzoic acid]",1.58 nM
7,"O=C(O)c1ccccc1N1CCC(O)(CN2CCC(Oc3ccc(Cl)c(Cl)c3)CC2)CC1 [Example 63, 2-(4-{[4-(3,4-dichlorophenoxy)piperidin-1-yl]methyl}-4-hydroxypiperidin-1-yl)benzoic acid]",50.1 nM

# From patent US20060264463A1, “Chemical compounds” (priority 2003, published 2006)
